From patent publication US11230683B2 (priority 2020, dated 2022) come the findings set out here.

pIC50: −log10 of the molar value. Several values for one entry are separate records, joined by “and”; a condition that tells them apart may be missing. Equal values may be shown once. Read-outs that look alike come from different tables or passages of the source.

For assay [1], the target named is T1, BuChE from equine serum (eqBuChE) (Equus caballus, UniProt P81908).
T1 construct: The BuChE freeze-dried from equine serum (eqBuChE, Sigma Aldrich); purchased Sigma Aldrich; host or cells: equine serum
Description: biochemical. In kind it is biochemical.

Assay [2] concerns the target T2, human erythrocyte AChE (hAChE) (Homo sapiens, UniProt P22303).
T2 construct: The human erythrocyte AChE (hAChE, aqueous buffer solution); purchased Sigma Aldrich; host or cells: human erythrocytes
Description: biochemical. The format is biochemical.

T1 sequence (P81908 whole entry): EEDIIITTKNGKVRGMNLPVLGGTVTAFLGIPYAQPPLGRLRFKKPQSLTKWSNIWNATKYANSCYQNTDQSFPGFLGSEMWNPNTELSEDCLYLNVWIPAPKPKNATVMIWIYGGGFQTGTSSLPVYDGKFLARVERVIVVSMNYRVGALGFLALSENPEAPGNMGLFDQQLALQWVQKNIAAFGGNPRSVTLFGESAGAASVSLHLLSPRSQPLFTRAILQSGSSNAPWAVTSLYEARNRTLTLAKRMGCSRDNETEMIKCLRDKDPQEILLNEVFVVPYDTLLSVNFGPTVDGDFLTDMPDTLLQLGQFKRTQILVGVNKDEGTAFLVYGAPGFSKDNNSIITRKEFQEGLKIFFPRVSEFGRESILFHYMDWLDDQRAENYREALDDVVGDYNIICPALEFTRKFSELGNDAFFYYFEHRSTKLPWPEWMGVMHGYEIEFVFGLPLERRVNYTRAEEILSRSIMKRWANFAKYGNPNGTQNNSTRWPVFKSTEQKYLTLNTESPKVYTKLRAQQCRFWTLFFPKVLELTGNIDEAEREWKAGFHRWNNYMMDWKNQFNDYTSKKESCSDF
T2 sequence (P22303 32-617 isoform P22303-2 limits assumed): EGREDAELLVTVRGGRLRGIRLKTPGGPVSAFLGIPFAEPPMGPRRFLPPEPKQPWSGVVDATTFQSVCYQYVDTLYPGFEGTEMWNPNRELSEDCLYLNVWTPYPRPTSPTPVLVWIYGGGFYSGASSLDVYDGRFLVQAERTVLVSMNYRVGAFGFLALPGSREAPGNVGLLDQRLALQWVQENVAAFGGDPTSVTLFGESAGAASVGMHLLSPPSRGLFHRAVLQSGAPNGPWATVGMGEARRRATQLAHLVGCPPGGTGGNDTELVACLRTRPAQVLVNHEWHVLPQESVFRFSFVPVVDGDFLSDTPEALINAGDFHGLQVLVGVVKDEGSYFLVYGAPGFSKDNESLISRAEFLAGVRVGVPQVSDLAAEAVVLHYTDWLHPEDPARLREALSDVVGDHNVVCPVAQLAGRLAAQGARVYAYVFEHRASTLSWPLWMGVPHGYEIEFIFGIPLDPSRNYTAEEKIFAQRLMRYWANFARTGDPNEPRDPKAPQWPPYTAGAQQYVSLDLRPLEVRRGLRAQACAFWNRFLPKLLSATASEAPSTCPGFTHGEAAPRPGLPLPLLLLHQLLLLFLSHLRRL

For the molecule `O=P(Oc1ccccc1)(Oc1ccccc1)Oc1ccc(OP(=O)(Oc2ccccc2)Oc2ccccc2)cc1` [Compound 1, Hydroquinone bis(diphenylphosphate)], the pIC50 in assay [1] (IC50 eqBuChE) was 3.73; in assay [2] (IC50 hAChE) it was 4.38.
In the case of `O=P(Oc1ccccc1)(Oc1ccccc1)Oc1ccc(-c2ccc(OP(=O)(Oc3ccccc3)Oc3ccccc3)cc2)cc1` [Compound 2, 4,4′-dihydroxybiphenyl bis(diphenylphosphate)], the pIC50 in assay [1] (IC50 eqBuChE) is 3.81 and 3.61; in assay [2] (IC50 hAChE), 4.42 and 3.89.
Turning to `O=P(Oc1ccccc1)(Oc1ccccc1)Oc1ccc(Sc2ccc(OP(=O)(Oc3ccccc3)Oc3ccccc3)cc2)cc1` [Compound 3, 4,4′-dihydroxydiphenylthioether bis(diphenylphosphate)], the figures for the pIC50 in assay [1] (IC50 eqBuChE) and in assay [2] (IC50 hAChE) were 3.78 and 4.47, respectively.
`O=P(Oc1ccccc1)(Oc1ccccc1)Oc1ccc(Oc2ccc(OP(=O)(Oc3ccccc3)Oc3ccccc3)cc2)cc1` [Compound 4, 4,4′-dihydroxydiphenylether bis(diphenylphosphate)]: the results for the pIC50 in assay [1] (IC50 eqBuChE) and in assay [2] (IC50 hAChE) were 3.93 and 4.47, respectively.
Turning to `O=P(Oc1ccccc1)(Oc1ccccc1)Oc1cc(OP(=O)(Oc2ccccc2)Oc2ccccc2)cc(OP(=O)(Oc2ccccc2)Oc2ccccc2)c1` [Compound 5, 1,3,5-phloroglucinol tris(bis(diphenylphosphate))], the pIC50 in assay [1] (IC50 eqBuChE) was 4.00.
Regarding `CCCCC(CC)(COP(=O)(Oc1ccccc1)Oc1ccccc1)COP(=O)(Oc1ccccc1)Oc1ccccc1` [Compound 6, 2-butyl-2-ethyl-1,3-propanediol bis(diphenylphosphate)], the pIC50 is 4.03 in assay [1] (IC50 eqBuChE) and 4.58 in assay [2] (IC50 hAChE).
In the same order, the values of `CCC(COP(=O)(Oc1ccccc1)Oc1ccccc1)(COP(=O)(Oc1ccccc1)Oc1ccccc1)COP(=O)(Oc1ccccc1)Oc1ccccc1` [Compound 7, trimethylolpropane tris(diphenylphosphate)] are 3.84 and 4.66.
In the case of `CCCCC(CC)COP(=O)(Oc1ccccc1)Oc1ccccc1` (stereo not drawn) [Compound A, 2-ethylhexyl diphenylphosphate], the negative-log IC50 (pIC50) in assay [1] (IC50 eqBuChE) was 5.71; in assay [2] (IC50 hAChE), 4.46.
For `Cc1ccccc1OP(=O)(Oc1ccccc1C)Oc1ccccc1C` [Compound B, Tri(ortho-cresyl)phosphate], in that order: 5.00 and 4.39.
For the molecule `Cc1cccc(OP(=O)(Oc2cccc(C)c2)Oc2cccc(C)c2)c1` [Compound C, Tri(meta-cresyl)phosphate], the negative-log IC50 (pIC50) in assay [1] (IC50 eqBuChE) was 5.20; in assay [2] (IC50 hAChE) it was 4.60.
For `Cc1ccc(OP(=O)(Oc2ccc(C)cc2)Oc2ccc(C)cc2)cc1` [Compound D, Tri(para-cresyl)phosphate], in that order: 3.94 and 4.58.
`O=P(Oc1c(F)cccc1F)(Oc1c(F)cccc1F)Oc1c(F)cccc1F` [Compound F, Tri(2,6-difluorophenyl)phosphate]: the pIC50 in assay [1] (IC50 eqBuChE) was 4.70; in assay [2] (IC50 hAChE) it was 4.89.
For `CC(C)(C)c1ccc(OP(=O)(Oc2ccccc2)Oc2ccc(C(C)(C)C)cc2)cc1` [Compound H, di(p-tertbutylphenyl)phenylphosphate], in that order: 3.55 and 4.56.
Consider `CC(C)(C)c1ccc(OP(=O)(Oc2ccc(C(C)(C)C)cc2)Oc2ccc(C(C)(C)C)cc2)cc1` [Compound I, Tri(p-tert-butylphenyl)phosphate], for which, in assay [1], the “action on butyrylcholinesterase, in words” value is recorded as “reduced inhibition”. The pIC50 is 3.71 in assay [1] (IC50 eqBuChE) and 4.77 in assay [2] (IC50 hAChE). Besides, the “action on acetylcholinesterase, in words” value in assay [2] was “active”.
With `NP(=O)(Oc1ccccc1)Oc1ccccc1` [Compound K, Diphenyl phosphoroamidate], the negative-log IC50 (pIC50) in assay [1] was 3.87; in assay [2], 4.42.
With `O=P(OCCCl)(OCCCl)OCCCl` [Compound N, tris(chloroethyl)phosphate], the pIC50 in assay [1] (IC50 eqBuChE) was 3.50; in assay [2] (IC50 hAChE), 4.54.
As to Saligenin cresyl phosphate [Compound J], the “IC50 eqBuChE” value in assay [1] was 0.7 µg/mL.
On to Tricresyl phosphate [Compound P], for which, in assay [1], the “IC50 eqBuChE” value amounted to 0.7 µg/mL. In assay [2], the “IC50 hAChE” value is 16.9 µg/mL.

The term pIC50 denotes the negative decadic logarithm of the IC50, by convention in mol/L. Low readings indicate a high IC50, high ones a low IC50.
